Assay results reported in patent US20050239760A1, “Angiostatic agents and methods and compositions for controlling ocular hypertension” (Alcon, Inc., priority 2004, published 2005).

Test system: choroidal neovascularization (CNV)
Test: Laser-induced choroidal neovascularization (CNV) in mice, rupture of Bruch's membrane
Type: in vivo, C57BL/J mice
Details: single 5 μl intravitreal injection immediately after laser, day 14 post-laser
Description: Choroidal neovascularization (CNV) was induced in C57BL/J mice by rupturing Bruch's membrane via focal laser photocoagulation (FIG. 3). (Tobe T, et al., AM. J. PATHOL., 153:1641-1646 (1998)). Three to four retinal burns were placed in randomly assigned eye using the Alcon 532 nm EyeLite laser (75 μm spot size, 0.1 seconds duration, 120 mW) with a slit lamp delivery system. The laser bums were used to generate a rupture in Bruch's membrane, which was indicated ophthalmoscopically by the formation of a bubble under the retina. Only mice with laser burns that produced three bubbles per eye were included in the study. Burns were typically placed at the 3, 6, 9 or 12 o'clock positions in the posterior pole of the retina, avoiding the branch retinal arteries and veins.
Each mouse was randomly assigned into one of the following treatment groups after laser: noninjected controls, sham-injected controls, vehicle-injected mice, or one of three anecortave acetate-injected groups. Control mice received laser photocoagulation in both eyes, where one eye received a sham injection, i.e. a pars plana needle puncture. For intravitreal-injected animals, one laser-treated eye received a 5 μl intravitreal injection of 0%, 0.1%, 1%, or 10% anecortave acetate. The intravitreal injection was performed immediately after laser photocoagulation.
Fourteen days post-laser, all mice were euthanized and systemically perfused with fluorescein-labeled dextran. Eyes were then harvested and prepared as choroidal flat mounts, and the 2-dimensional CNV area was quantified with computerized digital analysis. (Mori K., et al., AM. J. PATHOL. 159:313-320 (2001)). The median CNV area/burn per mouse per treatment was used for statistical analysis; P≦0.05 was considered significant.

`CC(=O)OCC(=O)[C@@]1(O)CC[C@H]2[C@@H]3CCC4=CC(=O)CC[C@]4(C)C3=CC[C@@]21C` [anecortave acetate, 4,9(11)-pregnadien-17α,21-diol-3,20-dione-21-acetate] was tested, and the “CNV versus vehicle-injected controls” value (0.1% anecortave acetate) was “No difference”, the “CNV versus vehicle-injected controls” value (1% anecortave acetate) was “No difference” and the “inhibition of CNV (median CNV area/burn) as compared to vehicle-injected eyes” value (10% anecortave acetate, Mann-Whitney P<0.001) was 57.8%.
